Reference: publication PMC8129988 (Inorganic Chemistry Frontiers, 2021)

Key:
[1] = system: FGFR3-driven UM-UC-14 xenografts; assay: UM-UC-14 xenograft experiment; type: in vivo, C.B.17/SCID mice; settings: 10 mg kg^-1 i.p., three times a week for two weeks
Method: (§1) Based on this promising in vitro data, the antitumor activity of our novel cobalt(III) complexes Co(acac)2LPon and Co(Meacac)2LPon was evaluated in xenograft mouse models. As a first in vivo experiment, BCR-ABL-driven K-562 cells were injected subcutaneously (s.c.) and treated intraperitoneally (i.p.) with the test compounds at 10 mg kg^−1 or the respective amount of solvent three times a week, for two weeks. Treatment with our novel derivatives was well tolerated and even after repeated i.p. applications no substantial body weight loss was observed (Fig. S13A ^†). […] Consequently, anticancer activity of Co(acac)2LPon was also investigated against FGFR3-driven UM-UC-14 xenografts using the identical treatment regime.
(§2) Fig. 11 In vivo anticancer activity of the investigated cobalt(III) complexes. […] Tumor sizes were evaluated by caliper measurement. […] Statistical significance was calculated by two-way ANOVA with Sidak multiple comparison test with p < 0.05(*); <0.01 (**).
(§3) Eight-to nine-week-old male C.B.17/SCID mice were bread in-house (originally Harlan) and were kept in pathogen-free conditions and controlled environment with 12 h light–dark cycle. […] Tumor growth was evaluated by daily recording of tumor size by caliper measurement. […]

cyclic voltammetry = type: physicochemical; settings: DMF, 0.2 M [n-Bu4N][BF4], 1.5 mM complex, scan rate 100 mV s^-1
Method: Since the redox potential is a crucial characteristic for the activation of cobalt(III)-based prodrugs systems, we investigated the novel complexes by cyclic voltammetry in comparison to Co(acac)2LEGFR. Measurements were performed in dimethylformamide (DMF) (+0.2 M [n-Bu4N][BF4]) at a scan speed of 100 mV s^−1. […] Even at a higher scan speed of 1000 mV s^−1, the redox processes were still completely irreversible for all complexes (Fig. S5 ^†).
The compounds were dissolved in DMF (+0.2 M [n-Bu4N][BF4]) to obtain a final concentration of 1.5 mM. Electrochemical experiments were conducted on an EG&G PARC 273A potentiostat/galvanostat with a scan rate of 100–1000 mV s^−1 at room temperature. Argon was bubbled through the solution before every measurement to remove oxygen. A three-electrode configuration cell was used with a glassy carbon electrode as working electrode, which was polished before every measurement. The reference electrode was Ag/Ag^+/ACN (10 mM AgNO3) and the auxiliary electrode was a platinum wire. The potentials were referenced to an internal standard redox couple of ferrocenium/ferrocene and calculated to the NHE (E1/2 = +0.72 V vs. NHE).[63] […] Redox potentials measured relative to the Ag/AgCl/KCl (3.5 M) reference electrode and converted to the NHE using +0.205 V. Measurements were at least repeated three times and the mean values were calculated.

[2] = system: BCR-ABL-driven K-562 xenografts; assay: K-562 xenograft experiment; type: in vivo, C.B.17/SCID mice; settings: 10 mg kg^-1 i.p., three times a week for two weeks
Method: as §1, §2, §3

[3] = serum stability in fetal calf serum (HPLC-MS); type: in vitro ADME; settings: 37 °C
Method: Therefore, we only investigated the stability of the novel complexes in fetal calf serum (FCS). As reference again Co(acac)2LEGFR[26] was included. The complexes were dissolved in 50 mM phosphate puffer and mixed 1 : 10 with fetal calf serum (FCS; buffered with 150 mM phosphate buffer to keep a stable pH of 7.4) to a final concentration of 50 μM. The samples were incubated at 37 °C and after 0, 2, 4, 6, 24 and 26 h extracted with acetonitrile and measured by HPLC-MS. […] This indeed confirms, that by avoiding the direct attachment of the ethylenediamine moiety to an aromatic ring system, complexes with much higher stability can be generated. Since no distinct difference in stability between Co(acac)2LPon and Co(Meacac)2LPon within 26 h could be observed, measurements were repeated up to 72 h.
For serum stability measurements, 135 μL FCS, buffered with 150 mM phosphate (Na2HPO4/NaH2PO4) to maintain a pH value of 7.4, were mixed with 15 μL of a 500 μM stock solution of the respective complex in 50 mM phosphate buffer to reach a final concentration of 50 μM. The samples were incubated at 37 °C. At different time points to 20 μL serum 40 μL of ACN were added. After vigorously shaking for 2 min the suspension was centrifuged at 6000 rpm for 10 min. The supernatant was taken with a syringe and directly measured via HPLC-MS. The samples were analyzed on an Agilent 1260 Infinity system using a Waters Atlantis T3 column (150 mm × 4.6 mm) coupled to a Bruker Amazon SL ESI-IT mass spectrometer. Water and acetonitrile (both containing 0.1% formic acid) were used as eluents with a gradient of 1–99% acetonitrile within 29 min.

SMILES: CC(=O)C=C(C)[O-].CC(=O)C=C(C)[O-].Cc1ccc(C(=O)Nc2ccc(CNCCN)c(C(F)(F)F)c2)cc1C#Cc1cnc2cccnn12.O=C(O)C(F)(F)F.[Co+3] [Co(acac)2LPon, Bis(2,4-pentanedionato)N-(4-(((2-aminoethyl)amino)methyl)-3-(trifluoromethyl)phenyl)-3-(imidazo[1,2-b]pyridazin-3-ylethynyl)-4-methylbenzamide cobalt(III) 2,2,2-trifluoroacetate]
- body weight [1]: without significant impact on body weight
- tumor volumes vs control [1]: significant reduction of tumor volumes
- cathodic peak potential (Co(III) to Co(II), irreversible) (cyclic voltammetry): −315 mV vs. NHE
- tumor growth vs solvent controls [2]: significantly reduced tumor growth
- intact complex remaining in FCS ([3]; 26 h, pH 7.4, 50 μM): ~90%
- intact compound remaining in FCS ([3]; 72 h, pH 7.4): ~70%
